The results in this text go back to BindingDB's records for doi:10.7270/Q290226P (Vanderbilt Screening Center For Gpcrs, Ion Channels and …, 2010).

What is called EC50 is the concentration giving half of the maximal effect. Read a low EC50 as an effect from little substance.

Some results are limits rather than exact numbers.

The target of this assay is T1, Muscarinic acetylcholine receptor M5 (Homo sapiens, UniProt P08912).
T1 sequence (P08912 whole entry): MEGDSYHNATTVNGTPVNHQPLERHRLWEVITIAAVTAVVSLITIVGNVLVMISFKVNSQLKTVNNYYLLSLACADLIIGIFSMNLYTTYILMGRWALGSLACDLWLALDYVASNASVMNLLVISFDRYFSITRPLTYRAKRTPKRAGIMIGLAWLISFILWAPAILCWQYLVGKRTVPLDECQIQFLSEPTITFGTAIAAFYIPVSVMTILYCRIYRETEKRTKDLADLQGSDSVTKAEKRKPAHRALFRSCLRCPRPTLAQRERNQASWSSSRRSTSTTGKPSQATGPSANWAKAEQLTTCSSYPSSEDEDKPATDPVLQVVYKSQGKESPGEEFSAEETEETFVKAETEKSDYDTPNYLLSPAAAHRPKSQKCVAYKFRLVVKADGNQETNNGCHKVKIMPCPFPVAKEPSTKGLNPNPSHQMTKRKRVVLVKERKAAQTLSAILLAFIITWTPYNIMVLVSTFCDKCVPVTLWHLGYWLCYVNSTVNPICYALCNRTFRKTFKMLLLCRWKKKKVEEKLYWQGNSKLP
The experiment in a line: PubChem AID 2186.
In turn, `O=C1C(=O)N(Cc2ccc(-c3ccccc3)cc2)c2ccc(OC(F)(F)F)cc21` had a half-maximal effective concentration (EC50) of more than 0.442 µM.

Regarding `O=C1C(=O)N(Cc2ccc(-c3ccsc3)cc2)c2ccc(OC(F)(F)F)cc21`, the half-maximal effective concentration (EC50) was more than 0.442 µM. Molecule `COc1ccc(CN2C(=O)C(=O)c3cc(OC(F)(F)F)ccc32)cc1` [VU0238429] came in with an EC50 of 0.000512 µM. In other words, the sub-nanomolar range.
